Test results reported in US20190270992A1, “METHODS OF CONTROLLING RED BLOOD CELL PRODUCTION” (WISCONSIN ALUMNI RESEARCH FOUNDATION, priority 2018, published 2019).
“Also recorded” adds a separate entry of the source.

What was measured:
[1] = tested on: G1E-ER-GATA-1 cells; experiment: 5-ALA rescue of heme biosynthesis, qRT-PCR of zinc transporter genes; format: cell-based, murine; details: 1 mM 5-ALA to bypass ALAS-2 and rescue heme biosynthesis; FIG. 3B
Experimental: Cell culture. G1E-ER-GATA-1 cells were cultured in Iscove's modified Dulbecco's medium (IMDM; Gibco) containing 15% FBS (Gemini), 1% penicillin-streptomycin (Gemini), 2 U/ml erythropoietin (Amgen), 120 nM monothioglycerol (Sigma), and 0.6% conditioned medium from a Kit ligand-producing CHO cell line, and 1 μg/ml puromycin (Gemini). ER-GATA-1 activity was induced by adding 1 μM β-estradiol (Steraloids) to media. To rescue heme synthesis, 1 mM 5-aminolevulinic acid hydrochloride (5-ALA; Sigma) was added to media.
(§1) qRT-PCR. Total RNA was purified from 0.4-2×10^6 cells with TRIzol® (Life Technologies). RNA was treated with DNase I (Life Technologies) for 15 min at room temperature. DNase I was inactivated by EDTA and heating at 65° C. for 10 min. DNase I-treated RNA was incubated with 125 ng of a 5:1 mixture of oligo (dT) primers and random hexamer at 68° C. for 10 min. RNA/primers were incubated with Moloney MLV reverse transcriptase (Life Technologies), 10 mM DTT (Life Technologies), RNAsin® (Promega), and 0.5 mM deoxynucleoside triphosphates at 42° C. for 1 h, and then heat inactivated at 98° C. for 5 min. Real-time PCR reactions were conducted with Power SYBR® Green Master Mix (Applied Biosystems) using ViiA™ 7 Real-Time PCR system (Applied Biosystems). Primer sequences are described in Table 1.

[2] = tested on: lineage-negative fetal liver-derived hematopoietic precursors; experiment: Zinc chelation with TPEN and ZnCl2 add-back, flow cytometry (FluoZin-3, live/dead, CD71, Ter119); format: cell-based, murine
Experimental: (§2) Primary erythroid precursors from E14.5 murine fetal livers were cultured in StemPro®-34 (Gibco) supplemented with 10% nutrient supplement (Gibco), 1×L-glutamine (Cellgro), 1% penicillin-streptomycin (Gemini), 0.1 mM monothioglycerol (Sigma), 1 NM dexamethasone (Sigma), 0.5 U/ml erythropoietin (Amgen), and 1% conditioned medium from a Kit ligand-producing CHO cell line (expansion culture). To chelate zinc, 10 NM N,N,N′,N′-Tetrakis(2-pyridylmethyl)ethylenediamine (TPEN, Sigma, P4413) was added to the media, and 20 NM ZnCl2 (Fisher Scientific) was added back. After two days, cells were differentiated in IMDM (Gibco) containing 10% FBS (Gemini), 10% plasma-derived serum (PDS; Animal Technologies), 5% protein-free hybridoma medium II (PFHM II; Gibco), 1% penicillin-streptomycin (Gemini), 0.1 mM monothioglycerol (Sigma) and 6 U/ml of erythropoietin (Amgen).
(§3) Flow cytometry. For intracellular zinc quantitation in mouse cells, cells were washed twice with PBS and incubated with 1 l/ml Ghost Dye™ Red 780 (TONBO Biosciences) for 30 min at 4° C. Cells were washed once with PBS containing 2% FBS and twice with HBSS, and treated with HBSS containing 1 μM FluoZin™-3 AM (Invitrogen), 0.02% Pluronic® F-127 (Invitrogen), BV421-conjugated anti-mouse CD71 (0.2 μg in 100 μl, Biolegend, 113813), and APC-conjugated anti-mouse Ter119 (0.2 μg in 100 μl, Biolegend, 116212) for 30 min at room temperature. Cells were washed once with HBSS and incubated for 15 min at room temperature. Cells were then washed twice with PBS and analyzed. […] Cells were then washed twice with PBS and analyzed. For intracellular zinc quantitation in human cells, cells were washed twice with HBSS and incubated with HBSS containing 1 μM FluoZin™-3 AM, 0.02% Pluronic® F-127, PE-conjugated anti-human CD71 (0.024 μg in 100 μl, eBioscience, 12-0719-42), and APC-conjugated anti-human CD235a (0.006 μg in 100 μl, eBioscience 17-9987-42) for 30 min at room temperature. […] Cells were then washed twice with PBS, stained with DAPI, and analyzed. Samples were analyzed using a BD LSR II (BD Biosciences). […]

[3] = tested on: mononuclear cells from G-CSF-mobilized peripheral blood; experiment: Heme quantitation after succinylacetone in human erythroid differentiation culture; format: cell-based; details: succinylacetone during the last four days of culture; day 20
Experimental: (§4) Primary human mononuclear cells were isolated from G-CSF-mobilized peripheral blood using Histopaque® (Sigma). Cells were maintained in StemSpan™ SFEM medium (Stem Cell Technologies) supplemented with 1×CC100 cytokine mix (Stem Cell Technologies) for 4 days. […]
Heme quantitation. […] Electronic absorption spectra of cleared lysates were recorded on a Varian Cary 4 Bio spectrophotometer, and the oxyhemoglobin concentration of each cleared lysate was calculated using extinction coefficients at 542 nm and 577 nm for human oxyhemoglobin monomers. Total heme in each cleared lysate was determined for two technical replicates using the pyridine hemochrome assay in which 200 μl of a stock solution of 0.1 N NaOH and 33% (v/v) pyridine was combined with 100 μl of the cleared lysate. Upon addition of 2-5 mg of sodium dithionite, electronic absorption spectra were recorded, and total heme concentrations were calculated using known extinction coefficients of the ferrous bis(pyridine) protoheme complex at 525 nm and 556 nm as is known in the art.

[4] = tested on: mononuclear cells from G-CSF-mobilized peripheral blood; experiment: Cellularity after succinylacetone (flow cytometry, Wright-Giemsa staining); format: cell-based, human; details: succinylacetone during the last four days of culture
Experimental: as §4
as §3, with “Cells were washed once with PBS containing 2% FBS and twice with HBSS, and treated with HBSS containing 1 μM FluoZin™-3 AM (Invitrogen), 0.02% Pluronic® F-127 (Invitrogen), BV421-conjugated anti-mouse CD71 (0.2 μg in 100 μl, Biolegend, 113813), and APC-conjugated anti-mouse Ter119 (0.2 μg in 100 μl, Biolegend, 116212) for 30 min at room temperature. Cells were washed once with HBSS and incubated for 15 min at room temperature.” left out

[5] = tested on: mononuclear cells from G-CSF-mobilized peripheral blood; experiment: qRT-PCR of gene expression after succinylacetone in human erythroid differentiation culture; format: cell-based; details: succinylacetone vs no treatment, day 19 and 20
Experimental: Primary human mononuclear cells were isolated from G-CSF-mobilized peripheral blood using Histopaque® (Sigma). Cells were maintained in StemSpan™ SFEM medium (Stem Cell Technologies) supplemented with 1×CC100 cytokine mix (Stem Cell Technologies) for 4 days. To induce differentiation, cells were cultured in basal differentiation media [IMDM containing 15% FBS, 2 mM L-glutamine, 1% BSA (Sigma), 500 μg/ml holo human transferrin (Sigma), and 10 [μg/ml insulin (Sigma)] supplemented with 1 μM dexamethasone (Sigma), 1 μM β-estradiol (Steraloids), 5 ng/ml IL-3, 100 ng/ml SCF, and 6 U/ml erythropoietin (Amgen) for 5 days, followed by four days in basal differentiation media supplemented with 50 ng/ml SCF and 6 U/ml erythropoietin and then seven days in basal differentiation media containing 2 U/ml erythropoietin.
as §1

[6] = tested on: Slc30a1 mRNA; experiment: shRNA-mediated knockdown, qRT-PCR of Slc30a1 mRNA; format: cell-based, mouse; details: off-target check
Experimental: as §2
(§5) qRT-PCR. Total RNA was purified from 0.4-2×10^6 cells with TRIzol® (Life Technologies). RNA was treated with DNase I (Life Technologies) for 15 min at room temperature. DNase I was inactivated by EDTA and heating at 65° C. for 10 min. DNase I-treated RNA was incubated with 125 ng of a 5:1 mixture of oligo (dT) primers and random hexamer at 68° C. for 10 min. […]

[7] = tested on: Slc39a8 mRNA; experiment: shRNA-mediated knockdown, qRT-PCR of Slc39a8 mRNA; format: cell-based, mouse; details: Luciferase shRNA as control
Experimental: as §2, §5

[8] = tested on: lineage-negative hematopoietic precursors (E14.5); experiment: Intracellular zinc (FluoZin-3 flow cytometry) in shRNA knockdown cells; format: cell-based, murine
Experimental: as §2, with “After two days, cells were differentiated in IMDM (Gibco) containing 10% FBS (Gemini), 10% plasma-derived serum (PDS; Animal Technologies), 5% protein-free hybridoma medium II (PFHM II; Gibco), 1% penicillin-streptomycin (Gemini), 0.1 mM monothioglycerol (Sigma) and 6 U/ml of erythropoietin (Amgen).” left out
as §3, with “Cells were washed once with PBS containing 2% FBS and twice with HBSS, and treated with HBSS containing 1 μM FluoZin™-3 AM (Invitrogen), 0.02% Pluronic® F-127 (Invitrogen), BV421-conjugated anti-mouse CD71 (0.2 μg in 100 μl, Biolegend, 113813), and APC-conjugated anti-mouse Ter119 (0.2 μg in 100 μl, Biolegend, 116212) for 30 min at room temperature. Cells were washed once with HBSS and incubated for 15 min at room temperature.” left out

[9] = tested on: lineage-negative hematopoietic precursors (E14.5); experiment: Thiazole orange (TO) discrimination of nucleated erythroblasts and enucleated progeny in shRNA knockdown cells; format: cell-based, murine; details: expanded 2 days, differentiated 3 days
Experimental: as §2, with “After two days, cells were differentiated in IMDM (Gibco) containing 10% FBS (Gemini), 10% plasma-derived serum (PDS; Animal Technologies), 5% protein-free hybridoma medium II (PFHM II; Gibco), 1% penicillin-streptomycin (Gemini), 0.1 mM monothioglycerol (Sigma) and 6 U/ml of erythropoietin (Amgen).” left out
as §3, with “Cells were washed once with PBS containing 2% FBS and twice with HBSS, and treated with HBSS containing 1 μM FluoZin™-3 AM (Invitrogen), 0.02% Pluronic® F-127 (Invitrogen), BV421-conjugated anti-mouse CD71 (0.2 μg in 100 μl, Biolegend, 113813), and APC-conjugated anti-mouse Ter119 (0.2 μg in 100 μl, Biolegend, 116212) for 30 min at room temperature. Cells were washed once with HBSS and incubated for 15 min at room temperature.” left out

[10] = tested on: lineage-negative hematopoietic precursors (E14.5); experiment: Erythroid populations (CD71, Ter119, FSC-A flow cytometry) in shRNA knockdown cells; format: cell-based, murine; details: day 5
Experimental: as §2, with “After two days, cells were differentiated in IMDM (Gibco) containing 10% FBS (Gemini), 10% plasma-derived serum (PDS; Animal Technologies), 5% protein-free hybridoma medium II (PFHM II; Gibco), 1% penicillin-streptomycin (Gemini), 0.1 mM monothioglycerol (Sigma) and 6 U/ml of erythropoietin (Amgen).” left out
as §3, with “Cells were washed once with PBS containing 2% FBS and twice with HBSS, and treated with HBSS containing 1 μM FluoZin™-3 AM (Invitrogen), 0.02% Pluronic® F-127 (Invitrogen), BV421-conjugated anti-mouse CD71 (0.2 μg in 100 μl, Biolegend, 113813), and APC-conjugated anti-mouse Ter119 (0.2 μg in 100 μl, Biolegend, 116212) for 30 min at room temperature. Cells were washed once with HBSS and incubated for 15 min at room temperature.” left out

Compound: Cl.NCC(=O)CCC(=O)O [5-ALA, 5-aminolevulinic acid hydrochloride]
- Slc30a1 expression [1]: increased

Compound: c1ccc(CN(CCN(Cc2ccccn2)Cc2ccccn2)Cc2ccccn2)nc1 [TPEN, N,N,N′,N′-Tetrakis(2-pyridylmethyl)ethylenediamine]
- live cell population ([2]; 10 NM TPEN in expansion culture, day 3): considerably decreased
- intracellular zinc levels in erythroid precursors of varying maturation stage ([2]; 10 NM TPEN in expansion culture, FluoZin-3 MFI): reduced

Compound: CC(=O)CC(=O)CCC(=O)O [Succinylacetone, succinylacetone]
- decrease of heme in oxyhemoglobin [3]: 3.4 fold
- decrease of total heme [3]: 2.9 fold
- cellularity [4]: did not impact
- ACTB expression [5]: unaffected
- HBA1 expression [5]: reduced
- HBB expression [5]: reduced
- SLC30A1 expression [5]: reduced

Compound: [Cl-].[Cl-].[Zn+2] [ZnCl2]
- effect of adding ZnCl2 to the media on the actions of TPEN ([2]; 10 NM TPEN, 20 NM ZnCl2 added back): negated the actions of TPEN

Compound: TGATAATTGTCACTGACAG (listed as DNA, chemistry not fully specified) [shRNAs targeting Slc39a8, retrovirus-expressed shRNA against mouse zinc importer Slc39a8]
- Slc30a1 mRNA levels upon Slc39a8 loss [6]: did not impact
- downregulation of Slc39a8 mRNA ([7]; day five (expanded two days, differentiated three days)): 71%
- downregulation of Slc39a8 mRNA ([7]; day two (expanded for two days)): 86%
- intracellular zinc in all (more mature) populations ([8]; erythroid differentiation culture, day 5): no effect; also recorded: did not alter
- decrease of intracellular zinc in R3 cells ([8]; expansion culture, day 2): 3.3 fold
- cell populations (CD71/TO) [9]: did not influence
- cellularity [10]: did not impact
